Test results as given in article PMC9188586, “Design, synthesis and evaluation of novel tetrahydropyridothienopyrimidin-ureas as cytotoxic and anti-angiogenic agents” (Scientific Reports, 2022).
Values joined by “and” are separate entries in the source; they are usually repeats but may differ in a detail not shown here. Equal values may be shown once.

What was measured:
HUVEC cells [1] = assay: Annexin V/PI flow cytometry apoptosis analysis, HUVEC; format: cell-based, human; settings: IC50 concentration; for Early apoptotic cells (Q3) / Late apoptotic cells (Q2): 48 h, one replicate
Procedure: (§1) The experiment was conducted by flow cytometry analysis of […] cells with propidium iodide (PI) and annexin V-fluorescein isothiocyanate (annexine V-FITC).
(§2) Then, cells were trypsinized, rinsed with phosphate-bufferede buffered saline (PBS) and then centrifuged at 1200 rpm for 3 min. After this, the binding buffer (500 μL) was added to the resulting cells, followed by addition and mixing with […] and PI (5 μL). After this, the samples were incubated in dark for 10 to 15 min at room temperature, and then the cellular analysis was measured by flow cytometer (FACS Calibur Bectone-Dickinson).

[2] = system: HUVEC (human umbilical vein endothelial cell); assay: MTT antiproliferative assay, HUVEC; format: cell-based; settings: Homo sapiens, HUVEC; MTT assay, 48 h incubation
Procedure: (§3) Two series of new tetrahydropyridothienopyrimidines were evaluated for their cytotoxicity against a panel of cell lines, including MCF-7 (breast cancer), SW480 (colon cancer), PC-3 (prostate cancer), HEPG-2 (liver cancer) and HUVEC (human umbilical vein endothelial cell) using 3-(4,5-dimethyl- thiazol-2-yl)-2,5-diphenyltetrazolium bromide (MTT) assay. Sorafenib was used as a positive control. The cytotoxicity is expressed as the concentration that inhibits 50% of cell viability (IC50). […] The preliminary SAR is evaluated on the basis of cytotoxicity results of phenyl derivatives (11a–k) and pyridine derivatives (11l–11y).The mesomeric effect didn’t improve the cytotoxicity of compound 11d in the first series.
(§4) Cytotoxicity of the compounds was measured by detecting the ability of cells in transforming MTT into a purple formazan dye. The different cell lines were provided by the National Cell Bank of Iran (Pastor Institute, Tehran, Iran). The required materials and reagents were purchased from Sigma. After the cell culture in RPMI-1640 medium and DMEM containing 10% FBS (Gibco, Milano, Italy), the suspension of MCF-7 (7000) and other cells (5000) were poured into 96 well plates and incubated in a humidified incubator containing 5% CO2 at 37 °C for 24 h. Subsequently, a solution of the compounds in DMSO was added to these plates and incubated for 48 h. After incubation, the solution of 5% 3-(4,5-Dimethyl-2-thiazolyl)-2,5-diphenyl-2H-tetrazolium bromide (MTT) was added to all the wells and incubation was continued for another 4 h. The record of color intensity of the formazan solution was at 570 nm by Bio-Rad microplate reader (Model 680) which reflects the cell growth condition.

PC-3 (prostate cancer) = assay: MTT antiproliferative assay, PC-3; format: cell-based; settings: 48 h incubation
Procedure: as §3, §4

MCF-7 (breast cancer) = assay: MTT antiproliferative assay, MCF-7; format: cell-based; settings: Homo sapiens, MCF7, 48 h incubation
Procedure: as §3, §4

HEPG-2 (liver cancer) = assay: MTT antiproliferative assay, HEPG-2; format: cell-based; settings: Homo sapiens, HepG2, 48 h incubation
Procedure: as §3, §4

SW480 (colon cancer) = assay: MTT antiproliferative assay, SW480; format: cell-based; settings: Homo sapiens, SW480, 48 h incubation
Procedure: as §3, §4

MCF-7 cells [3] = assay: Annexin V/PI flow cytometry apoptosis analysis, MCF-7; format: cell-based; settings: MCF-7, IC50 concentration
Procedure: as §1, §2

MRC5 normal cell line = assay: MTT cytotoxicity against normal cell line MRC5; format: cell-based; settings: for IC50: Homo sapiens, MRC5, MTT assay, normal cell line; for SI (Selectivity Index): IC50 value normal cell (MRC5)/IC50 value cancer cell (MCF-7)
Procedure: as §4

[4] = system: chick chorioallantoic membrane (CAM); assay: Chick chorioallantoic membrane (CAM) anti-angiogenic assay; format: in vivo; settings: IC50 concentration, compared with Sorafenib as positive control
Procedure: The hydrogen bonding between NH groups of urea and target proteins were known to give rise to better inhibition of an important growth factor receptor (VEGFR-2) involved in the process of angiogenesis. Thus, the chick chorioallantoic membrane (CAM) assay was utilized as an in-vivo technique to evaluate the anti-vascular effects. Therefore, the anti-angiogenic strength of compounds were investigated by a cheap and simple CAM assay (Figs. 4, 5)[32],[33]. The anti-angiogenic strength was measured and compared with DMSO (control) and Sorafenib as a positive control.
All eggs were supplied from (Poultry Breeding Farm, Tehran, Iran). Since the allantois of the chick embryo appears at about 3.5 days of incubation, the corresponding eggs were incubated (37.5 °C, relative humidity: 55–65%). To decrease the risk of infection, the particular regions of the egg, e.g., the front side of the embryo were cleaned and sterilized with 70% EtOH. On the 6th incubation day, a false air sac was created directly over the CAM, permitting its detachment from the shell membrane. The procedure was continued through a square incision over the CAM. The prepared window in a square form (1 × 1 cm), was covered by a flexible film and then transported to the incubator. On the 8th incubation day, the particular paper discs (Whatman) were coated with target agents and placed in the central area of the corresponding window. The surface of CAM was visually evaluated on the 12th incubation day using the stereomicroscope. We decided to use the number and the length of capillary blood vessels as the index of anti-angiogenic activity. Consequently, the prepared images were analyzed by the advantageous software, Image J[22],[23].

MCF-7 cells [5] = assay: Cell cycle analysis by flow cytometry, MCF-7; format: cell-based; settings: MCF-7, IC50 concentration, 48 h
Procedure: (§5) We can conclude that compound 11n induces cellular apoptosis in […]. An increase in sub-G1 area is an indicative of apoptosis.
(§6) After trypsinization and rinsing with PBS, the cells were centrifuged at 1200 rpm for 5 min and then incubated with PBS and fixed in ice-cooled 70% ethanol. After washing with PBS, the cells were resuspended in RNase A (0.1 mg/mL) and incubated for 5 h. Then, staining with PI ([…]) and incubation for 15 min were performed. By using Novocyte flow cytometer (ACEA Biosciences) the analysis was done and the calculation of cell cycle distributions was done by NovoExpress 1.1.0 software.

HUVEC and MCF-7 cells = assay: Cell cycle analysis by flow cytometry, cell line not given; format: cell-based; settings: cell line not stated, IC50 concentration, 48 h
Procedure: An increase in sub-G1 area is an indicative of apoptosis.
as §6

caspase-3 = assay: Caspase-3 level by ELISA in MCF-7 cells; format: cell-based, human; settings: 24 h; for Casp3 conc.: 11n at 2.67 μM, Sorafenib at 7.06 μM
Procedure: The activity of caspase (cysteinyl-aspartate-specific proteases) as intracellular cell death enzymes has been characterized. So, the […] the process[28]–[31].
Caspase-3 activity was measured using a caspase-3 (Active) (human) ELISA kit, MBS450774, according to the manufacturer’s instructions.

HUVEC cells [6] = assay: Cell cycle analysis by flow cytometry, HUVEC; format: cell-based, human; settings: IC50 concentration, 48 h
Procedure: as §5, §6

VEGFR-2 = target: T1, VEGFR-2 (Homo sapiens, UniProt P35968); assay: Western blot of VEGFR-2 phosphorylation in HUVECs; format: cell-based; settings: HUVEC, IC50 concentration, after 48 and 72 h, compared to positive control
T1 construct: endogenous in cells; host or cells: HUVEC
Procedure: It was is observed that, after 48 and 72 h, the phosphorylation of VEGFR-2 decreases compared to the positive control (Fig. 7).
After thawing in […] lysis buffer and centrifuge at 1200 rpm, the loading and electrophoresis of proteins on 12% SDSPAGE was performed. Then, they transferred for 1.5 h at 100 V into a nitrocellulose membrane ([…]) and blocked with 5% blocking buffer. After incubation of antibodies at 4 ◦C for 12 h, the detection of immunoblots were performed using the enhanced chemiluminescence (ECL) method.

T1 sequence (P35968 20-1356): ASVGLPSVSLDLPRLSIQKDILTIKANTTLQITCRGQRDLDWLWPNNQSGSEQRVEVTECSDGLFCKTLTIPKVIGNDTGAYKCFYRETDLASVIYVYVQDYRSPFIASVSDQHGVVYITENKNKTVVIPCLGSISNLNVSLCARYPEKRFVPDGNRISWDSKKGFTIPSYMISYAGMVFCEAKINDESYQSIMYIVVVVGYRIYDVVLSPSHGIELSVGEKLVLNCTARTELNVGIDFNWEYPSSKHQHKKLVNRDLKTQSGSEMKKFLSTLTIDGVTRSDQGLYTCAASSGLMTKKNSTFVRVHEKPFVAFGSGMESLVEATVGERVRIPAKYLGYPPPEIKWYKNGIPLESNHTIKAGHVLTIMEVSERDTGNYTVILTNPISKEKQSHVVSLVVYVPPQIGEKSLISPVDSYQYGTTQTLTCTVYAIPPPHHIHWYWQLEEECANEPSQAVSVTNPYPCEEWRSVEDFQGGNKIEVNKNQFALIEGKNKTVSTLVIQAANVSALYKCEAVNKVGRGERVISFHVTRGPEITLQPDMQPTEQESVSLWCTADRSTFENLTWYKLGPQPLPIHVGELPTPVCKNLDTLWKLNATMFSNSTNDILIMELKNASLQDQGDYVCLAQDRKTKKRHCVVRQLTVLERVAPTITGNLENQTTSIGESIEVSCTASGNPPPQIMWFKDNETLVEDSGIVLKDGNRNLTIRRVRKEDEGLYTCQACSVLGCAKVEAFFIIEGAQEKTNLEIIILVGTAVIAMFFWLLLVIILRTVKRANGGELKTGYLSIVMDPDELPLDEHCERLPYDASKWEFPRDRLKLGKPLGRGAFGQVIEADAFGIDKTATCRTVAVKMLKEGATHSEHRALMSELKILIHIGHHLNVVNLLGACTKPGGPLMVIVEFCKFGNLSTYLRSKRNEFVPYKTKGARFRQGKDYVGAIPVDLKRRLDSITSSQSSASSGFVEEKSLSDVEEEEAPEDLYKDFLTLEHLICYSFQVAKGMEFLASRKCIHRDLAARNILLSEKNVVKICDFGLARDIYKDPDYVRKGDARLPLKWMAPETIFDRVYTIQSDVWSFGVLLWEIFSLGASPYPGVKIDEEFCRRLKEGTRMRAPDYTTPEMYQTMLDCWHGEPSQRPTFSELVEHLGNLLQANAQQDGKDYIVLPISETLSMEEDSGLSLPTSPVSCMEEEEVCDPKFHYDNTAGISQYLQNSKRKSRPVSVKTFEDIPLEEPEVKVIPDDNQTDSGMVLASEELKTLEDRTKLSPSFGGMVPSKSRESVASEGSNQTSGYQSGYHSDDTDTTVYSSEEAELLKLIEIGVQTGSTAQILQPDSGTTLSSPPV

SMILES	melting point [°C]	IC50 [2] [µM]	IC50 (PC-3 (prostate cancer)) [µM]	IC50 (MCF-7 (breast cancer)) [µM]	IC50 (HEPG-2 (liver cancer)) [µM]	IC50 (SW480 (colon cancer)) [µM]	IC50 (MRC5 normal cell line) [µM]	SI (Selectivity Index) (MRC5 normal cell line)	Inhibitory effect on growing CAM (in words) [4]	Early apoptotic cells (Q3) (HUVEC cells [1]) [%]	Late apoptotic cells (Q2) (HUVEC cells [1]) [%]	also measured
Cc1cccc(NC(=O)Nc2nnc(Sc3ncnc4sc5c(c34)CCN(Cc3ccccc3)C5)s2)c1 [Compound 11b, 1-(5-((7-benzyl-5,6,7,8-tetrahydropyrido[4',3':4,5]thieno[2,3-d]pyrimidin-4-yl)thio)-1,3,4-thiadiazol-2-yl)-3-(m-tolyl)urea]	138 to 139	18.89 ± 0.09	46.8 ± 1.49	8.22 ± 0.09	48.1 ± 0.22	67.7 ± 2.53	32.1 ± 0.92	3.9	–	–	–	Apoptosis induction (in words) (HUVEC cells [1]): unable to induce apoptosis; Apoptosis induction (in words) (MCF-7 cells [3]): unable to induce apoptosis
O=C(Nc1ccc(Cl)c(Cl)c1)Nc1nnc(Sc2ncnc3sc4c(c23)CCN(Cc2ccccc2)C4)s1 [Compound 11h, 1-(5-((7-benzyl-5,6,7,8-tetrahydropyrido[4',3':4,5]thieno[2,3-d]pyrimidin-4-yl)thio)-1,3,4-thiadiazol-2-yl)-3-(3,4-dichlorophenyl)urea]	190 to 192	7.44 ± 0.06	70.2 ± 1.92	8.52 ± 0.02	53.71 ± 0.5	64.2 ± 2.2	41.2 ± 0.45	4.8	slightly weaker inhibitory effects	–	–	Apoptosis induction (in words) (HUVEC cells [1]): unable to induce apoptosis; Apoptosis induction (in words) (MCF-7 cells [3]): unable to induce apoptosis
Cc1ccccc1NC(=O)Nc1nnc(Sc2ncnc3sc4c(c23)CCN(Cc2ccncc2)C4)s1 [Compound 11l, 1-(5-((7-(pyridin-4-ylmethyl)-5,6,7,8-tetrahydropyrido[4',3':4,5]thieno[2,3-d]pyrimidin-4-yl)thio)-1,3,4-thiadiazol-2-yl)-3-(o-tolyl)urea]	–	2.53 ± 0.05	6.11 ± 0.08	2.8 ± 0.03	9.94 ± 0.07	15 ± 0.38	24.8 ± 0.36	–	–	5.51	89.0	Percentage of cell population in the S phase (MCF-7 cells [5]): 49.8%; Percentage of cells in G0 phase (HUVEC and MCF-7 cells): 97.6%
Cc1cccc(NC(=O)Nc2nnc(Sc3ncnc4sc5c(c34)CCN(Cc3ccncc3)C5)s2)c1 [Compound 11m, 1-(5-((7-(pyridin-4-ylmethyl)-5,6,7,8-tetrahydropyrido[4',3':4,5]thieno[2,3-d]pyrimidin-4-yl)thio)-1,3,4-thiadiazol-2-yl)-3-(m-tolyl)urea]	–	1.15 ± 0.03	11.79 ± 0.11	3.35 ± 0.01	27.76 ± 0.13	61.23 ± 0.44	33.2 ± 0.44	–	slightly weaker inhibitory effects	10.1	52.5	Percentage of cell population in the S phase (MCF-7 cells [5]): 32.9%
Cc1ccc(NC(=O)Nc2nnc(Sc3ncnc4sc5c(c34)CCN(Cc3ccncc3)C5)s2)cc1 [Compound 11n, 1-(5-((7-(pyridin-4-ylmethyl)-5,6,7,8-tetrahydropyrido[4',3':4,5]thieno[2,3-d]pyrimidin-4-yl)thio)-1,3,4-thiadiazol-2-yl)-3-(p-tolyl)urea]	–	2.09 ± 0.08	11.35 ± 0.09	2.67 ± 0.21	7.2 ± 0.03	6.84 ± 0.05	38.1 ± 0.81	14 and 14.2	slightly weaker inhibitory effects	16.5	79.8	Percentage of cells in G0 phase (MCF-7 cells [5]): 54.3%; Casp3 conc. (caspase-3): 3.63 ± 0.52 ng/mL; FLD (fold change of caspase-3 level) (caspase-3; control = 1): 5.2 fold; Percentage of cells in G0 phase (HUVEC cells [6]): 65.5%; Early apoptotic cells (Q3) (MCF-7 cells [3]; 48 h, one replicate): 22.8%; Late apoptotic cells (Q2) (MCF-7 cells [3]; 48 h, one replicate): 58.2%; Phosphorylation of VEGFR-2 (in words) (VEGFR-2): decreases
O=C(Nc1cccc(C(F)(F)F)c1)Nc1nnc(Sc2ncnc3sc4c(c23)CCN(Cc2ccncc2)C4)s1 [Compound 11x, 1-(5-((7-(pyridin-4-ylmethyl)-5,6,7,8-tetrahydropyrido[4',3':4,5]thieno[2,3-d]pyrimidin-4-yl)thio)-1,3,4-thiadiazol-2-yl)-3-(3-(trifluoromethyl)phenyl)urea]	241 to 243	9.15 ± 0.02	32.9 ± 0.61	9.36 ± 0.06	44.6 ± 0.52	60.55 ± 0.41	–	–	–	–	–	–
O=C(Nc1ccc(Cl)c(C(F)(F)F)c1)Nc1nnc(Sc2ncnc3sc4c(c23)CCN(Cc2ccncc2)C4)s1 [Compound 11y, 1-(4-chloro-3-(trifluoromethyl)phenyl)-3-(5-((7-(pyridin-4-ylmethyl)-5,6,7,8-tetrahydropyrido[4',3':4,5]thieno[2,3-d]pyrimidin-4-yl)thio)-1,3,4-thiadiazol-2-yl)urea]	257 to 260	57.1 ± 0.61	4.37 ± 0.06	20.48 ± 0.11	71.6 ± 3.24	45.69 ± 0.06	–	–	–	–	–	–
CNC(=O)c1cc(Oc2ccc(NC(=O)Nc3ccc(Cl)c(C(F)(F)F)c3)cc2)ccn1 [Sorafenib, reference compound]	–	2.81 ± 0.71	5.45 ± 0.11	7.06 ± 0.17	29.6 ± 0.31	19.8 ± 0.12	–	–	–	–	–	Casp3 conc. (caspase-3): 4.54 ± 0.25 ng/mL
